Where a SMILES comes first, the peptide text is derived from it. Where no end group is shown, it is not given here. The star is where a group is joined. Fmoc = O=C(OCC1c2ccccc2-c2ccccc21)*
How the values were obtained:
[1] = test system: CL1-5 cells; assay type: in vivo, mice
Protocol: CL1-5 cells were washed, detached, and resuspended in PBS. Subsequently, a single-cell suspension containing 2×10^6 cell in 80 μL PBS was mixed with 20 μL 10× Matrigel (Corning, 5117012). The cell suspension was subcutaneously injected into the upper back of the immune deficient BALB/CAnN.Cg-Foxn1nu/CrlBltw mice. […] The tumor-bearing mice were divided into five groups (n=8/group). […] On day 13, the mice in the Fmoc-LT1-3 group were subcutaneously injected with 20 nmol Fmoc-LT1-3/γ-CD in the lower back daily. […] During the course of each treatment, the tumor volume was measured every 3 days. The mortality rates of mice were recorded, which included mice with tumor volume over 1500 mm^3. The percent of survival rate is recorded in FIG. 11 and the median survival of each group is calculated in Table 1.

[2] = test system: CL1-5 lung cancer cells; test: Tumor growth in xenograft animal model; assay type: in vivo
Protocol: Six-week old immune deficient BALB/CAnN.Cg-Foxn1nu/CrlBltw mice were housed in individual ventilated chambers (IVC). A total of 2×10^6 CL1-5 lung cancer cells in 100 μL PBS were mixed with 100 μL of 10× Matrigel. The lung cancer cells/Matrigel mix was injected subcutaneously to the lower back of the mice. Three days later, the mice were treated with 0, 10, 20, or 30 nmol of Fmoc-LT-1-3 subcutaneously everyday. The Fmoc-LT-1-3 peptide was dissolved in 100% DMSO and diluted to the desired concentration in PBS from day 3 to day 17. On the 18th day, we observed that 80% of control group animal, 40% of 10 nmol group animal, 20% of 20 nmol group animal, and 40% of 30 nmol group animal developed tumor. Percent of tumor free animal increased with increasing level of Fmoc-LT1-3 between 10 nmol and 20 nmol. […] This phenomenon may be due to lower solubility of Fmoc-LT1-3 at higher concentration. We thus decided to replace the solvent from DMSO with γ-CD, and diluted the peptide to the desired concentration for injection on the 18th day and thereafter. The volume of tumor was measured periodically. […] On the 39th day, animals were sacrificed. The tumor and organs were weighted, fixed and embedded in paraffin. Embedded tissue were sectioned and stained with hematoxylin-eosin for histologic analysis.

[3] = test system: CL1-5 cells; test: Cell proliferation assay in CL1-5 cells; assay type: cell-based; details: for growth inhibition (cell proliferation): Fmoc modified peptides, 24 h, FIG. 1 and FIG. 2; for Growth inhibition: LT fragments at 0, 12.5, 25 and 50 μM
Protocol: The peptides described below were Fmoc modified and dissolved in DMSO and […] and then used in cell proliferation assay. CL1-5 cells were cultured to 80% confluence in RPMI medium containing 10% FBS. After detachment, 3×10^4[…]cells were seeded onto 12-well plates. After 16 h of incubation, cells were either harvested before treatment (designated as 0 h), or treated with LT peptides for 24 h (designated 24 h), and viable cells were counted. Relative fold-change in cell number or percent increase in cell growth (%) was calculated by following formula: (Cell number24h−Cell number0h)/(Cell number of control24h−Cell number of control0h).

[4] = test system: CL1-5 cells; test: Cell invasion assay (Matrigel-coated modified Boyden chamber) in CL1-5 cells; assay type: cell-based; details: for Invasion inhibition: LT fragments at 0, 12.5, 25 and 50 μM, FIG. 12
Protocol: Fmoc-LT1-3 peptides were used in cell invasion assay. A 24-well modified Boyden chamber with a polycarbonate membrane (8-μm pore size) was used for in vitro invasion assays. […] CL1-5 cells (3×10^4 cells/well) in RPMI medium with various concentrations of peptide were seeded onto the upper chamber. […] After 24 h of incubation, the cells were fixed with ice-cold 100% methanol and stained with 10% Giemsa. Following staining, cells on the upper side of the membrane were removed with a cotton swab. The number of invaded cells attached to the lower surface of the polycarbonate membranes was counted under a light microscope. All experiments were performed in triplicate.

[5] = test system: A549; test: Cell proliferation assay in A549 lung cancer cell line; assay type: cell-based; details: A549, FIG. 4
[6] = test system: H1299; test: Cell proliferation assay in H1299 lung cancer cell line; assay type: cell-based; details: H1299, FIG. 4
[7] = test system: H460; test: Cell proliferation assay in H460 lung cancer cell line; assay type: cell-based; details: H460, FIG. 4
[8] = test system: H1355; test: Cell proliferation assay in H1355 lung cancer cell line; assay type: cell-based; details: H1355, FIG. 4

Compound | growth inhibition (cell proliferation) ([3]; CL1-5 cells) | Invasion inhibition [4] | Growth inhibition ([3]; CL1-5 cells) | also measured
CC[C@H](C)[C@H](NC(=O)[C@H](Cc1c[nH]cn1)NC(=O)[C@H](Cc1ccccc1)NC(=O)OCC1c2ccccc2-c2ccccc21)C(=O)N[C@H](C(=O)N[C@@H](CCC(=O)O)C(=O)N[C@@H](CC(C)C)C(=O)N[C@@H](CC(C)C)C(=O)N[C@@H](C)C(=O)O)C(C)C [Fmoc-LT1-3] (Fmoc-FHIVELLA-OH; N-terminus and C-terminus assumed) |  |  |  | effect on cisplatin-induced toxicity ([1]; combination treatment with cisplatin vs cisplatin only group): alleviate cisplatin-induced toxicity; histologic analysis, toxicity ([2]; hematoxylin-eosin stained tissue, day 39): did not reveal obvious toxicity; relative weight of organs ([2]; treatment groups vs control group, day 39, FIG. 9): no significant differences
O=S(=O)(NCCNC/C=C/c1ccc(Br)cc1)c1cccc2cnccc12 [H89, reference compound] |  |  |  | LT-peptide-mediated growth inhibition together with PKA inhibitor (H89) ([3]; CL1-5 cells, FIG. 24): enhances growth inhibition activity
N.N.[Cl][Pt][Cl] [cisplatin, reference compound] |  |  |  | Median survival ([1]; single agent: cisplatin 4 mg/kg IP weekly 4 times, or 20 nmol Fmoc-LT1-3/γ-CD s.c. daily): 37.5 days
AHIVELLA (Fmoc-AHIVELLA) [LT-A1, Fmoc modified in the proliferation assay] | better inhibition activity than F-moc-LT1-3 peptide |  |  | 
ASAIYSVETINDGNFHIVELLA [LT-1] |  | inhibitory effect and Yes | inhibitory effect and Yes | 
FAIVELLA (Fmoc-FAIVELLA) [LT-A2, Fmoc modified in the proliferation assay] | better inhibition activity than F-moc-LT1-3 peptide |  |  | 
FHIAELLA (Fmoc-FHIAELLA) [LT-A4, Fmoc modified in the proliferation assay] | better inhibition activity than F-moc-LT1-3 peptide |  |  | 
FHIVEALA (Fmoc-FHIVEALA) [LT-A6, Fmoc modified in the proliferation assay] | better inhibition activity than F-moc-LT1-3 peptide |  |  | 
FHIVELAA (Fmoc-FHIVELAA) [LT-A7, Fmoc modified in the proliferation assay] | better inhibition activity than F-moc-LT1-3 peptide |  |  | 
Fmoc-LT-A3: Fmoc binds to N terminal of FHAVELLA (SEQ ID NO:10) (Fmoc-FHAVELLA) | best growth inhibition capability |  |  | cell invasion inhibition ([4]; Fmoc peptides, 24 h, FIG. 5): inhibited cell invasion; growth inhibition in lung cancer cell lines [5]: no effect; growth inhibition in lung cancer cell lines [6]: partially inhibited; growth inhibition in lung cancer cell lines [7]: greatly inhibited; growth inhibition in lung cancer cell lines ([3]; CL1-5, FIG. 4): greatly inhibited; growth inhibition, dose effect experiment ([3]; Fmoc-LT-peptides, CL1-5 cells, FIG. 3): best growth inhibition capability; growth inhibition in lung cancer cell lines [8]: greatly inhibited
GGMPGKSNVASLRQAPGQNGTSF [LT-4] |  | inhibitory effect on cell invasion only and Yes | No | 
KIITNLSKQSTLNFDSPLYVGG [LT-3] |  | inhibitory effect on cell invasion only and Yes | No | 
LRQAPGQNGTSFHGCIRNLYINSE [LT-5] |  | inhibitory effect on cell invasion only and Yes | No | 
